{
  "source": "patent US20150105252A1",
  "about": "“SUBSTITUTED PYRAZOLES AS HERBICIDES” (E I DU PONT DE NEMOURS AND COMPANY, priority 2013, published 2015)",
  "key": {"oilseed rape": {"system": "oilseed rape", "experiment": "Test C preemergence", "type": "in vivo, Brassica napus", "procedure,_shortened": "(§1)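 Greenhouse pot test: preemergence application onto freshly seeded loam/sand mix, postemergence application onto seedlings (1–4 leaves, 2–18 cm) in peat-vermiculite substrate. Responses scored visually 13 to 15 days later relative to controls, where 0 means no effect and 100 means complete control; a dash indicates no result.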"}, "foxtail, giant": {"system": "foxtail, giant", "experiment": "Test A postemergence", "type": "in vivo, Setaria faberii", "procedure,_shortened": "(§2)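 Injury readout: eye-scored versus untreated controls, 0 to 100. Exposure period: ~10 days, greenhouse. Application: soil-directed spray over sown seed (pre) or spray on seedlings 2–10 cm tall with one or two leaves (post), compound carried in non-phytotoxic solvent including surfactant.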"}, "nutsedge, yellow": {"system": "nutsedge, yellow", "experiment": "Test C preemergence", "type": "in vivo, Cyperus esculentus", "procedure,_shortened": "as §1"}, "morningglory [1]": {"system": "morningglory", "experiment": "Test A postemergence", "type": "in vivo, Ipomoea spp.", "conditions": "Postemergence", "procedure,_shortened": "as §2"}, "wheat": {"system": "wheat", "experiment": "Test A preemergence", "type": "in vivo, Triticum aestivum", "conditions": "preemergence; for Wheat plant response rating (0 to 100 scale): 125 g ai/ha, visual injury approx. 10 days after treatment", "procedure,_shortened": "as §2"}, "velvetleaf [2]": {"system": "velvetleaf", "experiment": "Test A postemergence", "type": "in vivo, Abutilon theophrasti", "conditions": "Postemergence", "procedure,_shortened": "as §2"}, "sedge, umbrella": {"system": "sedge, umbrella", "experiment": "Test B flood", "type": "in vivo, Cyperus difformis", "conditions": "250 g ai/ha, visual rating on 0 to 100 scale (0 no effect, 100 complete control), 13 to 15 days", "procedure,_shortened": "(§3)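 Plants were grown to the 2-leaf stage and pots flooded to 3 cm above soil. Compounds were applied directly into the paddy water, with depth kept for the test. After 13–15 days in greenhouse, response was rated visually against controls on a 0 (no effect) to 100 (complete control) scale.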"}, "crabgrass, large [3]": {"system": "crabgrass, large", "experiment": "Test A preemergence", "type": "in vivo, Digitaria sanguinalis", "conditions": "preemergence; for Crabgrass, Large plant response rating (0 to 100 scale): 125 g ai/ha, visual injury approx. 10 days after treatment; for Crabgrass, Large plant response rating: 500 g ai/ha, visual injury after approx. 10 days, 0 to 100 scale (0 no effect, 100 complete control)", "procedure,_shortened": "as §2"}, "ryegrass, Italian": {"system": "ryegrass, Italian", "experiment": "Test C preemergence", "type": "in vivo, Lolium multiflorum", "procedure,_shortened": "as §1"}, "velvetleaf [4]": {"system": "velvetleaf", "experiment": "Test A preemergence", "type": "in vivo, Abutilon theophrasti", "conditions": "preemergence; for Velvetleaf plant response rating (0 to 100 scale): 125 g ai/ha, visual injury approx. 10 days after treatment", "procedure,_shortened": "as §2"}, "crabgrass, large [5]": {"system": "crabgrass, large", "experiment": "Test A postemergence", "type": "in vivo, Digitaria sanguinalis", "procedure,_shortened": "as §2"}, "barnyardgrass": {"system": "barnyardgrass", "experiment": "Test B flood", "type": "in vivo, Echinochloa crus-galli", "conditions": "250 g ai/ha, visual rating on 0 to 100 scale (0 no effect, 100 complete control), 13 to 15 days", "procedure,_shortened": "as §3"}, "soybean": {"system": "soybean", "experiment": "Test C preemergence", "type": "in vivo, Glycine max", "procedure,_shortened": "as §1"}, "galium": {"system": "galium", "experiment": "Test C preemergence", "type": "in vivo, Galium aparine", "procedure,_shortened": "as §1"}, "morningglory [6]": {"system": "morningglory", "experiment": "Test A preemergence", "type": "in vivo, Ipomoea spp.", "conditions": "preemergence; for Morningglory plant response rating (0 to 100 scale): 125 g ai/ha, visual injury approx. 10 days after treatment", "procedure,_shortened": "as §2"}, "[7]": {"conditions": "preemergence, 31 g ai/ha, visual rating, scale 0 to 100 (0 no effect, 100 complete control), 13 to 15 days"}, "[8]": {"conditions": "preemergence, 62 g ai/ha, scale 0 to 100 (0 no effect, 100 complete control), 13 to 15 days"}, "[9]": {"conditions": "preemergence, 125 g ai/ha, 13 to 15 days, scale 0 to 100, 0 = no effect, 100 = complete control"}, "[10]": {"conditions": "preemergence, 250 g ai/ha, scale 0 to 100, 0 is no effect, 100 is complete control"}, "[11]": {"conditions": "Postemergence, 500 g ai/ha, 0 to 100 scale (0 no effect, 100 complete control)"}, "[12]": {"conditions": "postemergence, 125 g ai/ha, about 10 days, visual rating on 0 to 100 scale (0 no effect, 100 complete control)"}, "[13]": {"conditions": "125 g ai/ha, 0 to 100 scale, 0 no effect, 100 complete control"}, "[14]": {"conditions": "500 g ai/ha, 0 to 100 scale (0 no effect, 100 complete control)"}, "[15]": {"conditions": "500 g ai/ha, visual injury after approx. 10 days, 0 to 100 scale (0 no effect, 100 complete control)"}, "[16]": {"conditions": "Preemergence, rate head not shown (block before 16 g ai/ha), scale 0 to 100"}, "[17]": {"conditions": "Postemergence, 125 g ai/ha, 0 to 100 scale, 0 no effect, 100 complete control"}},
  "data": [
    {"smiles": "CCc1cc(C(=O)NC2CC2)nn1Cc1ccnc(OCC(F)(F)F)c1", "note": "[Compound 200]", "values": [
      {"measurement": "Oilseed Rape plant response rating", "setting": "oilseed rape; [7]", "value": 60},
      {"measurement": "Oilseed Rape plant response rating", "setting": "oilseed rape; [8]", "value": 95},
      {"measurement": "Plant response rating, Oilseed Rape", "setting": "oilseed rape; [9]", "value": 98},
      {"measurement": "Oilseed Rape plant response rating", "setting": "oilseed rape; [10]", "value": 98},
      {"measurement": "Foxtail, Giant plant response rating", "setting": "foxtail, giant; [11]", "value": 100},
      {"measurement": "Foxtail, Giant plant response rating", "setting": "foxtail, giant; [12]", "value": 100},
      {"measurement": "Nutsedge, Yellow plant response rating", "setting": "nutsedge, yellow; [7]", "value": 20},
      {"measurement": "Nutsedge, Yellow plant response rating", "setting": "nutsedge, yellow; [8]", "value": 25},
      {"measurement": "Plant response rating, Nutsedge, Yellow", "setting": "nutsedge, yellow; [9]", "value": 40},
      {"measurement": "Nutsedge, Yellow plant response rating", "setting": "nutsedge, yellow; [10]", "value": 60},
      {"measurement": "Morningglory plant response rating", "setting": "morningglory [1]; [13]", "value": 100},
      {"measurement": "Morningglory plant response rating", "setting": "morningglory [1]; [14]", "value": 100},
      {"measurement": "Wheat plant response rating (0 to 100 scale)", "setting": "wheat", "value": 0},
      {"measurement": "Wheat plant response rating", "setting": "wheat; [15]", "value": 100},
      {"measurement": "Velvetleaf plant response rating", "setting": "velvetleaf [2]; [13]", "value": 80},
      {"measurement": "Velvetleaf plant response rating", "setting": "velvetleaf [2]; [14]", "value": 90},
      {"measurement": "Plant response rating, Sedge, Umbrella", "setting": "sedge, umbrella", "value": 90},
      {"measurement": "Crabgrass, Large plant response rating (0 to 100 scale)", "setting": "crabgrass, large [3]", "value": 100},
      {"measurement": "Crabgrass, Large plant response rating", "setting": "crabgrass, large [3]", "value": 100},
      {"measurement": "Ryegrass, Italian plant response rating", "setting": "ryegrass, Italian; [7]", "value": 0},
      {"measurement": "Ryegrass, Italian plant response rating", "setting": "ryegrass, Italian; [8]", "value": 90},
      {"measurement": "Plant response rating, Ryegrass, Italian", "setting": "ryegrass, Italian; [9]", "value": 90},
      {"measurement": "Ryegrass, Italian plant response rating", "setting": "ryegrass, Italian; [10]", "value": 95},
      {"measurement": "Velvetleaf plant response rating (0 to 100 scale)", "setting": "velvetleaf [4]", "value": 20},
      {"measurement": "Velvetleaf plant response rating", "setting": "velvetleaf [4]; [15]", "value": 100},
      {"measurement": "Crabgrass, Large plant response rating", "setting": "crabgrass, large [5]; [11]", "value": 100},
      {"measurement": "Crabgrass, Large plant response rating", "setting": "crabgrass, large [5]; [12]", "value": 100},
      {"measurement": "Plant response rating, Barnyardgrass", "setting": "barnyardgrass", "value": 25},
      {"measurement": "Soybean plant response rating", "setting": "soybean; [7]", "value": 50},
      {"measurement": "Soybean plant response rating", "setting": "soybean; [8]", "value": 70},
      {"measurement": "Plant response rating, Soybean", "setting": "soybean; [9]", "value": 70},
      {"measurement": "Soybean plant response rating", "setting": "soybean; [10]", "value": 85},
      {"measurement": "Galium plant response rating", "setting": "galium; [7]", "value": 85},
      {"measurement": "Galium plant response rating", "setting": "galium; [8]", "value": 100},
      {"measurement": "Plant response rating, Galium", "setting": "galium; [9]", "value": 100},
      {"measurement": "Galium plant response rating", "setting": "galium; [10]", "value": 100},
      {"measurement": "Morningglory plant response rating (0 to 100 scale)", "setting": "morningglory [6]", "value": 40},
      {"measurement": "Morningglory plant response rating", "setting": "morningglory [6]; [15]", "value": 100}
    ]},
    {"smiles": "CCc1cc(C(=O)NC2CC2)nn1Cc1cc(C(F)(F)C(F)(F)F)nn1C", "note": "[Compound 226]", "values": [
      {"measurement": "Plant response rating, Oilseed Rape", "setting": "oilseed rape; [16]", "value": 30},
      {"measurement": "Oilseed Rape plant response rating", "setting": "oilseed rape; [8]", "value": 85},
      {"measurement": "Plant response rating, Oilseed Rape", "setting": "oilseed rape; [9]", "value": 100},
      {"measurement": "Oilseed Rape plant response rating", "setting": "oilseed rape; [10]", "value": 95},
      {"measurement": "Foxtail, Giant plant response rating", "setting": "foxtail, giant; [17]", "value": 80},
      {"measurement": "Foxtail, Giant plant response rating", "setting": "foxtail, giant; [11]", "value": 90},
      {"measurement": "Plant response rating, Nutsedge, Yellow", "setting": "nutsedge, yellow; [16]", "value": 0},
      {"measurement": "Nutsedge, Yellow plant response rating", "setting": "nutsedge, yellow; [8]", "value": 5},
      {"measurement": "Plant response rating, Nutsedge, Yellow", "setting": "nutsedge, yellow; [9]", "value": 5},
      {"measurement": "Nutsedge, Yellow plant response rating", "setting": "nutsedge, yellow; [10]", "value": 20},
      {"measurement": "Morningglory plant response rating", "setting": "morningglory [1]; [13]", "value": 70},
      {"measurement": "Morningglory plant response rating", "setting": "morningglory [1]; [14]", "value": 100},
      {"measurement": "Wheat plant response rating (0 to 100 scale)", "setting": "wheat", "value": 40},
      {"measurement": "Velvetleaf plant response rating", "setting": "velvetleaf [2]; [13]", "value": 50},
      {"measurement": "Velvetleaf plant response rating", "setting": "velvetleaf [2]; [14]", "value": 90},
      {"measurement": "Plant response rating, Sedge, Umbrella", "setting": "sedge, umbrella", "value": 90},
      {"measurement": "Crabgrass, Large plant response rating (0 to 100 scale)", "setting": "crabgrass, large [3]", "value": 100},
      {"measurement": "Crabgrass, Large plant response rating", "setting": "crabgrass, large [3]", "value": 100},
      {"measurement": "Plant response rating, Ryegrass, Italian", "setting": "ryegrass, Italian; [16]", "value": 0},
      {"measurement": "Ryegrass, Italian plant response rating", "setting": "ryegrass, Italian; [8]", "value": 5},
      {"measurement": "Plant response rating, Ryegrass, Italian", "setting": "ryegrass, Italian; [9]", "value": 35},
      {"measurement": "Ryegrass, Italian plant response rating", "setting": "ryegrass, Italian; [10]", "value": 80},
      {"measurement": "Velvetleaf plant response rating (0 to 100 scale)", "setting": "velvetleaf [4]", "value": 60},
      {"measurement": "Crabgrass, Large plant response rating", "setting": "crabgrass, large [5]; [17]", "value": 70},
      {"measurement": "Crabgrass, Large plant response rating", "setting": "crabgrass, large [5]; [11]", "value": 90},
      {"measurement": "Plant response rating, Barnyardgrass", "setting": "barnyardgrass", "value": 50},
      {"measurement": "Plant response rating, Soybean", "setting": "soybean; [16]", "value": 10},
      {"measurement": "Soybean plant response rating", "setting": "soybean; [8]", "value": 70},
      {"measurement": "Plant response rating, Soybean", "setting": "soybean; [9]", "value": 95},
      {"measurement": "Soybean plant response rating", "setting": "soybean; [10]", "value": 100},
      {"measurement": "Plant response rating, Galium", "setting": "galium; [16]", "value": 0},
      {"measurement": "Galium plant response rating", "setting": "galium; [8]", "value": 90},
      {"measurement": "Plant response rating, Galium", "setting": "galium; [9]", "value": 80},
      {"measurement": "Galium plant response rating", "setting": "galium; [10]", "value": 90},
      {"measurement": "Morningglory plant response rating (0 to 100 scale)", "setting": "morningglory [6]", "value": 100}
    ]}
  ]
}
